Results taken from patent US10913744B2, “LRRK2 inhibitors and methods of making and using the same” (Dana-Farber Cancer Institute, Inc., priority 2015, dated 2021).
Like-named read-outs stand apart in the source and are kept apart here.

Experiments:
DAPK1 = DAPK1 (Homo sapiens (Human), UniProt P53355); experiment: Dundee profiling
JNK2 [1] = target: T1, JNK2 (Homo sapiens (Human), UniProt P45984); experiment: KinomeScan; assay type: binding; details: 1 uM
MLK3 = MLK3 (Homo sapiens (Human), UniProt Q16584); experiment: KinomeScan; assay type: binding; details: 1 uM
AMPK = experiment: Dundee profiling
BRK = BRK (Homo sapiens (Human), UniProt Q13882); experiment: Dundee profiling
MPSK1 = MPSK1 (Homo sapiens (Human), UniProt O75716); experiment: Dundee profiling
IKKb = IKKb (Homo sapiens (Human), UniProt O14920); experiment: Dundee profiling
JNK1 = JNK1 (Homo sapiens (Human), UniProt P45983); experiment: Dundee profiling
PKCγ = PKCγ (Homo sapiens (Human), UniProt P05129); experiment: Dundee profiling
PFTK1 = PFTK1 (Homo sapiens (Human), UniProt O94921); experiment: KinomeScan; assay type: binding; details: 1 uM
BRSK2 = BRSK2 (Homo sapiens (Human), UniProt Q8IWQ3); experiment: Dundee profiling
ASK1 = ASK1 (Homo sapiens (Human), UniProt Q99683); experiment: Dundee profiling
JNK2 [2] = target: T1, JNK2; experiment: Dundee profiling
CAMK1 = CAMK1 (Homo sapiens (Human), UniProt Q14012); experiment: Dundee profiling
TAO1 = TAO1 (Homo sapiens (Human), UniProt Q7L7X3); experiment: Dundee profiling
[3] = Pharmacokinetic study in mice; assay type: in vivo, mouse; details: for C0: back extrapolated conc.; for Vd: read-out: Vss
MST3 = MST3 (Homo sapiens (Human), UniProt Q9Y6E0); experiment: KinomeScan; assay type: binding; details: 1 uM
ULK2 = ULK2 (Homo sapiens (Human), UniProt Q8IYT8); experiment: Dundee profiling
CDK9-Cyclin T1 = CDK9-Cyclin T1 (Homo sapiens (Human), UniProt P50750); experiment: Dundee profiling
[4] = target: EGFR (L747-T751del, Sins) (Homo sapiens (Human), UniProt P00533, DEL747-751/INS746S); experiment: KinomeScan; assay type: binding; details: 1 uM
CDK11 = CDK11 (Homo sapiens (Human), UniProt Q9BWU1); experiment: KinomeScan; assay type: binding; details: 1 uM
QSK = QSK (Homo sapiens (Human), UniProt Q9Y2K2); experiment: KinomeScan; assay type: binding; details: 1 uM
CAMKKb = CAMKKb (Homo sapiens (Human), UniProt Q96RR4); experiment: Dundee profiling
PAK4 = PAK4 (Homo sapiens (Human), UniProt O96013); experiment: Dundee profiling
SIK2 = SIK2 (Homo sapiens (Human), UniProt Q9H0K1); experiment: Dundee profiling
PKCz = PKCz (Homo sapiens (Human), UniProt Q05513); experiment: Dundee profiling
ERK8 = ERK8 (Homo sapiens (Human), UniProt Q8TD08); experiment: Dundee profiling
EGFR (L858R, T790M) = EGFR (L858R, T790M) (Homo sapiens (Human), UniProt P00533, L858R/T790M); experiment: KinomeScan; assay type: binding; details: 1 uM
CHK2 = CHK2 (Homo sapiens (Human), UniProt O96017); experiment: Dundee profiling
CSK = CSK (Homo sapiens (Human), UniProt P41240); experiment: Dundee profiling
[5] = read-out: percent remaining enzymatic activity, I1, 1 μM
[6] = read-out: percent remaining enzymatic activity, I10
[7] = read-out: percent remaining enzymatic activity

Sequence of CHK2 (O96017 whole entry, species assumed): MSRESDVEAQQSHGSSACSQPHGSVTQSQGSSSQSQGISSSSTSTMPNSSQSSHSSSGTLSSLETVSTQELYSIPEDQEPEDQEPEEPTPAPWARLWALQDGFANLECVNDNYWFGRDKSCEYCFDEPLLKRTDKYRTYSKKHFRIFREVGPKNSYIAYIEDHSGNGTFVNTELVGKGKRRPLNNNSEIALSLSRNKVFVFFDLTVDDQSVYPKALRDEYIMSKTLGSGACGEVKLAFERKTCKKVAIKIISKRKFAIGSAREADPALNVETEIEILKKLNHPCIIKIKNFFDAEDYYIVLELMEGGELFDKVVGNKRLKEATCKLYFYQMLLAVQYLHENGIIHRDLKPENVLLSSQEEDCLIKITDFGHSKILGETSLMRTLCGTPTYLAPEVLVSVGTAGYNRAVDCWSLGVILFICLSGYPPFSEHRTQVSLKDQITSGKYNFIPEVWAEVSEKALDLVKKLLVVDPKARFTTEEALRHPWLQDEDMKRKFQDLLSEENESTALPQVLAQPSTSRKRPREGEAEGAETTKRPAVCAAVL
T1 sequence (P45984 whole entry, species assumed): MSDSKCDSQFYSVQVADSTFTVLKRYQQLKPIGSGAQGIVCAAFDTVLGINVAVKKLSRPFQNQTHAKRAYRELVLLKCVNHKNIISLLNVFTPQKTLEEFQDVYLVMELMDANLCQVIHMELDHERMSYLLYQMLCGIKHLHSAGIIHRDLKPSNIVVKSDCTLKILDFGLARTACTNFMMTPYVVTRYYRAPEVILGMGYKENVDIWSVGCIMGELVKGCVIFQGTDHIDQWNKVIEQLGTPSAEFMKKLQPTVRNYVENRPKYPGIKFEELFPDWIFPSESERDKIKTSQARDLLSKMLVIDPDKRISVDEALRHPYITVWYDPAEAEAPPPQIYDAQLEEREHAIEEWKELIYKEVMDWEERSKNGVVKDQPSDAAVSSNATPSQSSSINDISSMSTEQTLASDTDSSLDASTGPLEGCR
Sequence of TAO1 (Q7L7X3 whole entry): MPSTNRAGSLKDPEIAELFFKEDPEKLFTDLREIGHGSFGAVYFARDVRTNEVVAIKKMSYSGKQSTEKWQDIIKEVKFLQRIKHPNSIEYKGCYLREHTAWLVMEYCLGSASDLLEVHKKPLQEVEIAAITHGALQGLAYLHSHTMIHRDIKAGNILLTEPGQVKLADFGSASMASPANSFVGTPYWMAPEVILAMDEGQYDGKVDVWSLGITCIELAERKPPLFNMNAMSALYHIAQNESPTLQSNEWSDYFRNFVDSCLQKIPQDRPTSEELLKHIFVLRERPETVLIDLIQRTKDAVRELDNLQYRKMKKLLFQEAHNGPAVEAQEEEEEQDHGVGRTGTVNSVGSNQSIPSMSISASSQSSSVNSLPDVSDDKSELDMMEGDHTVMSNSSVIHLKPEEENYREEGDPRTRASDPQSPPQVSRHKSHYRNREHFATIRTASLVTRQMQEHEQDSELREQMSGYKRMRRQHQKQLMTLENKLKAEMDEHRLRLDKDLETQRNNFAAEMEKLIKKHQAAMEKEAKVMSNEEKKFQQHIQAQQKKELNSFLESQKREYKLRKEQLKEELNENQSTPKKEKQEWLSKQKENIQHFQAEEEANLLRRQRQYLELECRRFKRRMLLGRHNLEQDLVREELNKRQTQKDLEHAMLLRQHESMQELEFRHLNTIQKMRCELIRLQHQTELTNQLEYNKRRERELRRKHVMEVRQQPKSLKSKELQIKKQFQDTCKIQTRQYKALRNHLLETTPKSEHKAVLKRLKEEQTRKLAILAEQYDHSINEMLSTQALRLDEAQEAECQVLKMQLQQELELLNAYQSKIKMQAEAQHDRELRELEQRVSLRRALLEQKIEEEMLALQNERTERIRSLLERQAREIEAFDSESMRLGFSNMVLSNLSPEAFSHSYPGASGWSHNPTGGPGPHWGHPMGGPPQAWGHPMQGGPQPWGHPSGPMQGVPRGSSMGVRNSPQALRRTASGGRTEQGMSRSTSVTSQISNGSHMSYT
Sequence of IKKb (O14920 whole entry, species assumed): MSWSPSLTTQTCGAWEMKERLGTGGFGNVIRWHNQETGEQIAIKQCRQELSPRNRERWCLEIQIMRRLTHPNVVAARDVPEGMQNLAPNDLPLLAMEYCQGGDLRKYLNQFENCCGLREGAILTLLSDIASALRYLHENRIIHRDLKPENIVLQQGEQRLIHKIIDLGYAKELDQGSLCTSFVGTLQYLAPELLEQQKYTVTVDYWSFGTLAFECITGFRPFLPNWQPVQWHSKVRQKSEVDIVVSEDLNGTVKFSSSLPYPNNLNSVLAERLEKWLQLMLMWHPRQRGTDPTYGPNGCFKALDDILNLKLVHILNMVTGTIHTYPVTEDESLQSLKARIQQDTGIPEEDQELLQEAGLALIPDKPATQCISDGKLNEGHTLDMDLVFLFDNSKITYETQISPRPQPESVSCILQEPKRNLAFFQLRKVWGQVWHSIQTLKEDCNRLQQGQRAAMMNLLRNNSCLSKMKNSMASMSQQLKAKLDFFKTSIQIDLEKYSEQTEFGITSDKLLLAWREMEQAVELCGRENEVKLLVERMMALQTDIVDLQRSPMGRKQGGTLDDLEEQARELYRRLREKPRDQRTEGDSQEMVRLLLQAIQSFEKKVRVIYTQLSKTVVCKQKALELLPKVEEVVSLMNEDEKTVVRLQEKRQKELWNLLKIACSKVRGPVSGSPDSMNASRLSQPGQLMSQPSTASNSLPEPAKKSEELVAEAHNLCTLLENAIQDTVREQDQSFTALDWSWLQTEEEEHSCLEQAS
Sequence of PKCz (Q05513 whole entry): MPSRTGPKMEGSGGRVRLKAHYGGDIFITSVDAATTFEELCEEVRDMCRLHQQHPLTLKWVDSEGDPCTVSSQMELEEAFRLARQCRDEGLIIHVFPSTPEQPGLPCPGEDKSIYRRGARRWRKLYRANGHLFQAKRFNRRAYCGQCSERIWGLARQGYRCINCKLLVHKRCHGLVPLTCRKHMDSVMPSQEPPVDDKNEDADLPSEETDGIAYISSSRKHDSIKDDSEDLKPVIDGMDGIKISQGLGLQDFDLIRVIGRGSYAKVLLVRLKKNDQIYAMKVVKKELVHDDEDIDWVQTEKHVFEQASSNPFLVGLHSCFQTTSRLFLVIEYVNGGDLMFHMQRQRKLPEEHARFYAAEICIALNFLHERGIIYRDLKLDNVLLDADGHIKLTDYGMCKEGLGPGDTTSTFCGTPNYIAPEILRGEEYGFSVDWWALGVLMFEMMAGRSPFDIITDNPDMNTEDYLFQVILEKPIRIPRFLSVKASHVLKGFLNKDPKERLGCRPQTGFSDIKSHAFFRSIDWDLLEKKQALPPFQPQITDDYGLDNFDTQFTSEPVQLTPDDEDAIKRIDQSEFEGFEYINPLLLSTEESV
Sequence of PAK4 (O96013 whole entry, species assumed): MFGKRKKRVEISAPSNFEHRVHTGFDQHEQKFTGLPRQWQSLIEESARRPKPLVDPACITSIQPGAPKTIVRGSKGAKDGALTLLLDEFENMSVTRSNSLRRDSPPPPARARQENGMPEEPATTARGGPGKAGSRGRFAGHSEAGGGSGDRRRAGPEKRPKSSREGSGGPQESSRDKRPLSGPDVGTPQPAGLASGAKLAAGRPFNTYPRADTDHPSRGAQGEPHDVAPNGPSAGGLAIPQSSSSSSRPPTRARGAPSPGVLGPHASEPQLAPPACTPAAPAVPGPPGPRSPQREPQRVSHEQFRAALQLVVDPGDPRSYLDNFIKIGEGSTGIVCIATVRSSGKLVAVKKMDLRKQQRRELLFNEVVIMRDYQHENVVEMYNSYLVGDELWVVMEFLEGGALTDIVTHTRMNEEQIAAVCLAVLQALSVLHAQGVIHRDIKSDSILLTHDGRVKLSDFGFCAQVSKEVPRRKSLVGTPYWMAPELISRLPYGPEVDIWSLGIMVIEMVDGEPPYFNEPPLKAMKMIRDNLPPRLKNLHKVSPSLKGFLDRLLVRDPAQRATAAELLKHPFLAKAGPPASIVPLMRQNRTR
Sequence of CDK9-Cyclin T1 (P50750 whole entry): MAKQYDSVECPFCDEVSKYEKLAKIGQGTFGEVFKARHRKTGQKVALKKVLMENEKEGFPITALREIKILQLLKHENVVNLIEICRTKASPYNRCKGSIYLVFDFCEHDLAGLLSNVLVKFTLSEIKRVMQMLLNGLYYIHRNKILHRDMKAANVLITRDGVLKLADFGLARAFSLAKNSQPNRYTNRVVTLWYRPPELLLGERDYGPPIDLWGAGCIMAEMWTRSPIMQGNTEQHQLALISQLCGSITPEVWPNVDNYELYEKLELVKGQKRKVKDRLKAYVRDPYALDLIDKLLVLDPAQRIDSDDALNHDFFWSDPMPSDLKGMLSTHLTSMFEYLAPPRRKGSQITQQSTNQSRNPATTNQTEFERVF
Sequence of CDK9-Cyclin T1 (O60563 whole entry partner): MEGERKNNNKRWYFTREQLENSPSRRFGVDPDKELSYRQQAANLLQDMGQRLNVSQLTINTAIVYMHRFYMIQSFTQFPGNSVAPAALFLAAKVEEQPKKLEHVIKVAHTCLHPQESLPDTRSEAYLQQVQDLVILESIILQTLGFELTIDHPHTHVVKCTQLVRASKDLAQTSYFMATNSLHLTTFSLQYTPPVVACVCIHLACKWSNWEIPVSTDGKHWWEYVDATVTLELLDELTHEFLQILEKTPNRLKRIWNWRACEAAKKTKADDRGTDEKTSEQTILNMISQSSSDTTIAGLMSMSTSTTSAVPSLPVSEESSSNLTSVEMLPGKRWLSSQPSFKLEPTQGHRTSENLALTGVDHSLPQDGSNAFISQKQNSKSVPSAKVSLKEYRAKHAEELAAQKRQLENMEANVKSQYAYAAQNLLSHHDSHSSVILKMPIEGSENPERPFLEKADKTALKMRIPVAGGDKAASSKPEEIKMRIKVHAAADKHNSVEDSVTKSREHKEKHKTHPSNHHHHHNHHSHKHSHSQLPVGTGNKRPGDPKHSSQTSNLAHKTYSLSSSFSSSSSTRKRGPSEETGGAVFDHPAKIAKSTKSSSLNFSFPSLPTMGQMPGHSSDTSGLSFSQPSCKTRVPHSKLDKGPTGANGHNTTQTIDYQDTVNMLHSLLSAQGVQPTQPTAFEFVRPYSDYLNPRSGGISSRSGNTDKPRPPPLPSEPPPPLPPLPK

CNc1nc(Nc2ccc(C(=O)N3CCOCC3)cc2OC)nc2[nH]cc(Cl)c12 [Compound 18, (4-((5-chloro-4-(methylamino)-7H-pyrrolo[2,3-d]pyrimidin-2-yl)amino)-3-methoxyphenyl)(morpholino)methanone]
remaining activity at 1 µM (DAPK1; [5]): 21%
remaining activity at 1 µM (DAPK1; [6]): 5%
KinomeScan value (JNK2 [1]): 78
KinomeScan value (MLK3): 100
percent remaining enzymatic activity (AMPK; I1, 1 μM): 112%
percent remaining enzymatic activity (AMPK; I10): 103%
remaining activity at 1 µM (BRK; [5]): 62%
remaining activity at 1 µM (BRK; [6]): 19%
remaining activity at 1 µM (MPSK1; [5]): 113%
remaining activity at 1 µM (MPSK1; [6]): 106%
remaining activity at 1 µM (IKKb; [5]): 100%
remaining activity at 1 µM (IKKb; [6]): 95%
percent remaining enzymatic activity (JNK1; I10): 6%
remaining activity at 1 µM (JNK1; [7]): 38%
remaining activity at 1 µM (PKCγ; [5]): 113%
remaining activity at 1 µM (PKCγ; [6]): 109%
KinomeScan value (PFTK1): 82
remaining activity at 1 µM (BRSK2; [5]): 110%
remaining activity at 1 µM (BRSK2; [6]): 98%
remaining activity at 1 µM (ASK1; [5]): 56%
remaining activity at 1 µM (ASK1; [6]): 10%
percent remaining enzymatic activity (JNK2 [2]; I10): 4%
remaining activity at 1 µM (JNK2 [2]; [7]): 27%
remaining activity at 1 µM (CAMK1; [5]): 80%
remaining activity at 1 µM (CAMK1; [6]): 34%
remaining activity at 1 µM (TAO1; [5]): 113%
remaining activity at 1 µM (TAO1; [6]): 100%
AUClast ([3]; Brain, i.v., 2 mg/kg): 239.31 ng·h/mL
AUClast ([3]; Plasma, i.v., 2 mg/kg): 532.67 ng·h/mL
T1/2 ([3]; Plasma, i.v., 2 mg/kg): 39.6 min
AUClast ([3]; Plasma, p.o., 10 mg/kg): 3094.58 ng·h/mL
Kp ([3]; mouse, brain/plasma, iv, 2 mg/kg i.v., from AUClast, read-out: brain/plasma concentration ratio): 0.45
AUC(0-inf) ([3]; mouse, iv, Brain, 2 mg/kg): 246 ng·h/mL
AUC(0-t) ([3]; mouse, iv, Brain, 2 mg/kg): 239 ng·h/mL
clearance ([3]; mouse, iv, Brain, 2 mg/kg): 135 mL/min/kg
half-life ([3]; mouse, iv, Brain, 2 mg/kg): 13.8 min
C0 ([3]; mouse, iv, Brain, 2 mg/kg): 1340 ng/mL
Vd ([3]; mouse, iv, Brain, i.v., 2 mg/kg): 1.7 L/kg
AUC(0-inf) ([3]; mouse, iv, Plasma, 2 mg/kg): 536 ng·h/mL
AUC(0-t) ([3]; mouse, iv, Plasma, 2 mg/kg): 533 ng·h/mL
clearance ([3]; mouse, iv, Plasma, 2 mg/kg): 62.2 mL/min/kg
half-life ([3]; mouse, iv, Plasma, 2 mg/kg): 39.6 min
C0 ([3]; mouse, iv, Plasma, 2 mg/kg): 1600 ng/mL
Vd ([3]; mouse, iv, Plasma, i.v., 2 mg/kg): 1.73 L/kg
bioavailability ([3]; mouse, oral, Plasma, 10 mg/kg p.o. vs 2 mg/kg i.v., from AUClast, read-out: % F (oral bioavailability)): 116%
AUC(0-inf) ([3]; mouse, po, Brain, 10 mg/kg): 762 ng·h/mL
AUC(0-t) ([3]; mouse, po, Brain, 10 mg/kg): 688 ng·h/mL
Cmax ([3]; mouse, po, Brain, 10 mg/kg): 247 ng/mL
Tmax ([3]; mouse, po, Brain, 10 mg/kg): 60 min
AUC(0-inf) ([3]; mouse, po, Plasma, 10 mg/kg): 3870 ng·h/mL
AUC(0-t) ([3]; mouse, po, Plasma, 10 mg/kg): 3090 ng·h/mL
Cmax ([3]; mouse, po, Plasma, 10 mg/kg): 803 ng/mL
Tmax ([3]; mouse, po, Plasma, 10 mg/kg): 60 min
KinomeScan value (MST3): 91
remaining activity at 1 µM (ULK2; [5]): 110%
remaining activity at 1 µM (ULK2; [6]): 95%
remaining activity at 1 µM (CDK9-Cyclin T1; [5]): 105%
remaining activity at 1 µM (CDK9-Cyclin T1; [6]): 91%
KinomeScan value [4]: 84
KinomeScan value (CDK11): 63
KinomeScan value (QSK): 86
remaining activity at 1 µM (CAMKKb; [5]): 50%
remaining activity at 1 µM (CAMKKb; [6]): 16%
remaining activity at 1 µM (PAK4; [5]): 102%
remaining activity at 1 µM (PAK4; [6]): 92%
remaining activity at 1 µM (SIK2; [5]): 109%
remaining activity at 1 µM (SIK2; [6]): 92%
remaining activity at 1 µM (PKCz; [5]): 76%
remaining activity at 1 µM (PKCz; [6]): 94%
remaining activity at 1 µM (ERK8; [5]): 108%
remaining activity at 1 µM (ERK8; [6]): 71%
KinomeScan value (EGFR (L858R, T790M)): 100
IC50 (CHK2): 27.6 nM
inhibition at 1 µM (CHK2; read-out: inhibition of kinase activity of the DMSO control): > 90%
remaining activity at 1 µM (CHK2; [5]): 5%
remaining activity at 1 µM (CHK2; [6]): 1%
percent remaining enzymatic activity (CSK; I10): 92%
remaining activity at 1 µM (CSK; [7]): 89%
